Measurements as given in patent publication US20240115496A1, “A COMPOUND DRY POWDER INHALANT AND USE THEREOF” (TIANJIN UNIVERSITY OF TRADITIONAL CHINESE MEDICINE, priority 2021, published 2024).
Where a name gives a salt, the structure may show the parent alone.

Columns and labels:
[1] = Particle size distribution test, laser particle size analyzer, dry dispersion; type: physicochemical
Experimental: The particle size distribution of DPI dry powder was measured by dry dispersion method using laser particle size analyzer, and Dv10, Dv50, Dv90, VMD (Volume median diameter) and SMD (Sauter mean diameter) were determined, respectively.

[2] = In vivo pharmacokinetics, plasma (UPLC-MS/MS); parameters: species or system rat; details: for half-life: read-out: HLz (biological half-life) (converted); for MRT last: read-out: MRTlast (mean retention time); for concentration at 2 min / concentration at 10 min / concentration at 15 min / concentration at 30 min / concentration at 60 min / concentration at 120 min / concentration at 240 min / concentration at 360 min / concentration at 4 min: read-out: Blood concentration of AH
Experimental: (§1) SPF-grade healthy SD male rats, body weight 180-220 g, purchased from SPF (Beijing) Biotechnology Co., Ltd (Certificate No. SCXK (Beijing) 2019-0010), were conventionally reared under (23±2)° C., humidity: (50±10)%. This study was conducted with the approval of the Animal Experiment Center of Tianjin University of Traditional Chinese Medicine.
(§2) 108 SPF-grade SD male rats were randomly divided into tail intravenous injection group and pulmonary administration group, with 9 time points of 2 min, 4 min, 10 min, 15 min, 30 min, 1 h, 2 h, 4 h and 6 h per group, 6 rats per time point per group. The rats were fasted for 12 h before the experiment, with water provided. The rats were weighed (to calculate the dose) and numbered, and both groups were intraperitoneally injected with 10% chloral hydrate at a dose of 2 mL/kg. Group 1 was administered BA/AH-DPI saline solution by tail intravenous injection at a dose of 9 mg/kg. Group 2 was administered 3 mg of BA/AH-DPI fine powder at the same dose by spray administration with a DP-4 tracheal insufflator (1.5 mL of air was pushed each time, 3-4 times consecutively). Blood was sampled from the abdominal aorta of the rats in both groups at the above time points after drug administration, and the rats were executed. The obtained whole blood was placed in a centrifuge tube with sodium heparin, centrifuged at 4000 r/min for 10 min, and the upper layer of plasma was separated and stored a refrigerator at −80° C. After blood collection, the thoracic cavity was quickly opened and the lungs of the rats were isolated. The small amount of floating blood on the surface of the lung tissue was washed with saline in an ice bath. The surface of the lung tissue was blotted with filter paper. The trachea was cut off, wrapped in tin foil and placed in a 10 mL centrifuge tube. The lung was weighed precisely, and stored in a refrigerator at −80° C.
(§3) 100 μL of the plasma sample or lung tissue supernatant was precisely absorbed, and 200 μL (100 ng/mL) of methanol solution containing the internal standard was added. The mixture was vortexed and mixed for 3 min, and centrifuged at 12000 r/min for 10 min to obtain the supernatant as the finished sample. The contents of BA and AH were determined by UPLC-MS/MS method.
(§4) Electrospray ion source (ESI source); scan mode: positive (ESI+) detection; detection mode: multi-reactive ion monitoring (MRM). Electrospray voltage: 4 kV; atomization gas: N2; spray gas flow rate (Gas1): 15 psi; ion source temperature: 300° C.
(§5) Meaning of pharmacokinetic parameters: HLz was the biological half-life, i.e., the time required for the amount or blood concentration of the drug in the body to decrease by half; Tmax was the time to peak, i.e., the time required to reach the peak concentration of the drug after administration. Cmax was the peak drug concentration, i.e., the highest blood concentration that occurred after administration of the drug. AUC was the area enclosed by the blood drug concentration curve against the time axis. Vz/F was the apparent volume of distribution, the ratio constant of the amount of drug in the body to the blood concentration when the drug reached dynamic equilibrium in the body. CL/F was the clearance, i.e., the number of apparent volume of distribution of the drug removed from the body per unit time. AUMC was the first order moment of the drug-time curve, i.e. the area under the curse of the product of time and blood concentration versus time. MRTlast was the mean retention time, i.e., the average of the residence time of drug molecules in the body.

[3] = In vivo pharmacokinetics, lung tissue homogenate (UPLC-MS/MS); parameters: species or system rat; details: for CL/F (clearance) / Cmax / Tmax / half-life / MRT last: AH in rat lung tissue; for concentration at 2 min / concentration at 4 min / concentration at 10 min / concentration at 15 min / concentration at 30 min / concentration at 60 min / concentration at 120 min / concentration at 240 min / concentration at 360 min / Cmax / Tmax / half-life / MRT last: male; for concentration at 2 min / concentration at 4 min / concentration at 10 min / concentration at 15 min / concentration at 30 min / concentration at 60 min / concentration at 120 min / concentration at 240 min / concentration at 360 min: rat lung tissue homogenate, read-out: Drug concentration of AH in lung tissue; for Cmax / Tmax / half-life / MRT last: lung tissue (homogenate supernatant); for half-life: read-out: HLz (biological half-life) (converted); for MRT last: read-out: MRTlast (mean retention time)
Experimental: as §1, §2
The lung tissues were added to saline in a weight to volume ratio of 1:4 (g:mL). A homogenate was obtained by beating, dispersing and evenly grinding with a homogenizer under an ice water bath, and centrifuged at 6500 r/min for 20 min to obtain the supernatant of the lung tissue homogenate.
as §3, §4, §5

[4] = male, SD, inhaled or intranasal, AH in rat plasma, pulmonary administration group, BA/AH-DPI 9 mg/kg
[5] = male, SD, inhaled, rat plasma, pulmonary administration BA/AH-DPI 9 mg/kg
[6] = male, SD, AH in rat plasma, tail intravenous injection group, 9 mg/kg
[7] = male, SD, rat plasma, tail intravenous injection BA/AH-DPI saline solution 9 mg/kg
[8] = male, Sprague-Dawley (SD), rat plasma, tail intravenous injection BA/AH-DPI saline solution 9 mg/kg
[9] = Sprague-Dawley (SD), inhaled, pulmonary administration BA/AH-DPI 9 mg/kg
[10] = Sprague-Dawley (SD), inhaled or intranasal, pulmonary administration group, BA/AH-DPI 9 mg/kg
[11] = Sprague-Dawley (SD), tail intravenous injection group, 9 mg/kg
[12] = Sprague-Dawley (SD), tail intravenous injection BA/AH-DPI saline solution 9 mg/kg

D10 [1]: 0.77 μm | D50 [1]: 3.07 μm | D90 [1]: 8.43 μm | SMD (Sauter mean diameter) [1]: 1.79 μm | VMD (Volume median diameter) [1]: 3.93 μm | <3 μm ([1]; fraction of particles): 49.10% | <5 μm ([1]; fraction of particles): 70.30% | CL/F (clearance) ([2]; AH in rat plasma, tail intravenous injection group, 9 mg/kg): 169.3805 ± 53.272 mL/min/kg | Cmax [2, 4]: 1770 ± 382 ng/mL | CL/F ([2]; male, SD, inhaled or intranasal, AH in rat plasma, pulmonary administration group, BA/AH-DPI 9 mg/kg, read-out: CL/F (clearance) (converted)): 237 mL/min/kg | half-life [2, 4]: 109 ± 39.6 min | MRT last [2, 4]: 49.8 ± 6 min | Vd/F ([2]; male, SD, inhaled or intranasal, AH in rat plasma, pulmonary administration group, BA/AH-DPI 9 mg/kg, read-out: Vz/F (apparent volume of distribution)): 37.2 ± 15.6 L/kg | bioavailability ([2]; male, SD, inhaled, rat plasma, pulmonary administration of BA/AH-DPI vs tail intravenous injection, 9 mg/kg, read-out: Absolute bioavailability): 53.5% | concentration at 2 min [2, 5]: 763 ± 101 ng/mL | concentration at 10 min [2, 5]: 1130 ± 170 ng/mL | concentration at 15 min [2, 5]: 464 ± 191 ng/mL | concentration at 30 min [2, 5]: 280 ± 75.8 ng/mL | concentration at 60 min [2, 5]: 124 ± 35.3 ng/mL | concentration at 120 min [2, 5]: 40.2 ± 21.1 ng/mL | concentration at 240 min [2, 5]: 21 ± 6.64 ng/mL | concentration at 360 min [2, 5]: 8.57 ± 0.38 ng/mL | Cmax [2, 6]: 3300 ± 1440 ng/mL | Tmax [2, 6]: 1.98 min | half-life [2, 6]: 146 ± 53.4 min | MRT last [2, 6]: 49.2 ± 10.2 min | concentration at 10 min [2, 7]: 395 ± 142 ng/mL | concentration at 15 min [2, 7]: 306 ± 140 ng/mL | concentration at 30 min [2, 7]: 252 ± 116 ng/mL | concentration at 60 min [2, 7]: 148 ± 58.7 ng/mL | concentration at 120 min [2, 7]: 49.4 ± 23 ng/mL | concentration at 240 min [2, 7]: 33.9 ± 12.2 ng/mL | concentration at 360 min [2, 7]: 18.9 ± 6.61 ng/mL | Tmax ([2]; male, Sprague-Dawley (SD), inhaled or intranasal, AH in rat plasma, pulmonary administration group, BA/AH-DPI 9 mg/kg): 4.02 min | concentration at 4 min ([2]; male, Sprague-Dawley (SD), inhaled, rat plasma, pulmonary administration BA/AH-DPI 9 mg/kg): 1770 ± 382 ng/mL | concentration at 2 min [2, 8]: 3300 ± 1690 ng/mL | concentration at 4 min [2, 8]: 598 ± 233 ng/mL | Time of maximum blood concentration in plasma ([2]; rat, pulmonary administration of BA/AH-DPI 9 mg/kg): 4 min | CL/F (clearance) ([3]; pulmonary administration group, BA/AH-DPI 9 mg/kg): 876.24 ± 146.55 g/h/kg | CL/F (clearance) ([3]; tail intravenous injection group, 9 mg/kg): 1454.72 ± 257.24 g/h/kg | concentration at 2 min ([3]; SD, tail intravenous injection BA/AH-DPI saline solution 9 mg/kg): 3230 ± 973 ng/mL | concentration at 2 min [3, 9]: 7610 ± 1750 ng/mL | concentration at 4 min [3, 9]: 5150 ± 879 ng/mL | concentration at 10 min [3, 9]: 2450 ± 384 ng/mL | concentration at 15 min [3, 9]: 1320 ± 524 ng/mL | concentration at 30 min [3, 9]: 798 ± 289 ng/mL | concentration at 60 min [3, 9]: 503 ± 200 ng/mL | concentration at 120 min [3, 9]: 256 ± 139 ng/mL | concentration at 240 min [3, 9]: 153 ± 60 ng/mL | concentration at 360 min [3, 9]: 66.2 ± 38.2 ng/mL | Cmax [3, 10]: 30400 ± 6970 ng/g | Tmax [3, 10]: 2.34 ± 0.78 min | half-life [3, 10]: 91.8 ± 26.4 min | MRT last [3, 10]: 1.21 ± 0.2 h | Cmax [3, 11]: 12900 ± 3890 ng/g | Tmax [3, 11]: 1.98 min | half-life [3, 11]: 72.6 ± 11.4 min | MRT last [3, 11]: 1.01 ± 0.12 h | concentration at 4 min [3, 12]: 1780 ± 454 ng/mL | concentration at 10 min [3, 12]: 1230 ± 183 ng/mL | concentration at 15 min [3, 12]: 1030 ± 210 ng/mL | concentration at 30 min [3, 12]: 780 ± 243 ng/mL | concentration at 60 min [3, 12]: 352 ± 83.1 ng/mL | concentration at 120 min [3, 12]: 135 ± 58.9 ng/mL | concentration at 240 min [3, 12]: 68.4 ± 24.5 ng/mL | concentration at 360 min [3, 12]: 23.4 ± 10.5 ng/mL
SMILES: Nc1c(Br)cc(Br)cc1CNC1CCC(O)CC1 (stereo not drawn) [AH, ambroxol hydrochloride]
